Results published in ChEMBL document CHEMBL3352625, “Development of novel neurokinin 3 receptor (NK3R) selective agonists with resistance to proteolytic degradation” (J Med Chem, 2014).
Active and inactive are the calls of the source. The rule behind the calls is not given here. *1 amine or outer side, *2 acyl side, *3 side chain or, on linkers, in order; H or OH if unused. Where a SMILES comes first, the peptide text is derived from it. [ ]: non-standard residue; d: D form. X4 = CC(C)C[C@H](N/C(CN[*:1])=N\O)C(=O)[*:2]; X3 = CC(C)C[C@H](NC(=N)CN[*:1])C(=O)[*:2]; X1 = CC(C)C[C@H](CCCN[*:1])C(=O)[*:2]; X2 = CC(C)C/C(=C\CCN[*:1])C(=O)[*:2]; NMeF = CN[C@@H](Cc1ccccc1)C(=O)O; Suc = O=C(CCC(=O)[*:2])[*:1]

What was measured:
Neuromedin-K receptor [1] = molecular target: T1, Neuromedin-K receptor (Homo sapiens, UniProt P29371); experiment: Displacement of [125I]His3, MePhe7 from human NK3R expressed in CHO cell membranes by scintillation counting
T1 sequence (P29371 whole entry): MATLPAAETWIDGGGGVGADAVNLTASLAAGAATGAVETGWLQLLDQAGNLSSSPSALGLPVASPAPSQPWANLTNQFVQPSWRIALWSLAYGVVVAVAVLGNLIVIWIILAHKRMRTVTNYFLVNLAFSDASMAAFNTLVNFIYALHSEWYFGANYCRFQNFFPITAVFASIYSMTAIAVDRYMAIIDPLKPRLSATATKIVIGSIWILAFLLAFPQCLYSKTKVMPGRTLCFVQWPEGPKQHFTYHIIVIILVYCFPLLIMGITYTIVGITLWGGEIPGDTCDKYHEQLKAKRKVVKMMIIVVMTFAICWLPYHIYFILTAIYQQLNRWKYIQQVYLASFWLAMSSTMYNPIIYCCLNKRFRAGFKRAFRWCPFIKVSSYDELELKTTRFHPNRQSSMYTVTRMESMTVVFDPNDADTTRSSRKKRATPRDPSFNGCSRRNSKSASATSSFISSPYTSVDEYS

Neuromedin-K receptor [2] = molecular target: T1, Neuromedin-K receptor; experiment: (§1) Agonist activity at human NK3R expressed in CHO cells assessed as induction of Ca2+ influx […]; format: functional, cell-based
[3] = molecular target: Substance-P receptor (Homo sapiens) (UniProt P25103); experiment: Displacement of [125I]-BH-SP from human NK1R expressed in CHO cell membranes at 10 uM by scintillation counting
[4] = molecular target: T2, Substance-K receptor (Homo sapiens) (UniProt P21452); experiment: Displacement of [125I]-NKA from […] expressed in CHO cell membranes at 10 uM by scintillation counting
T2 sequence (whole entry): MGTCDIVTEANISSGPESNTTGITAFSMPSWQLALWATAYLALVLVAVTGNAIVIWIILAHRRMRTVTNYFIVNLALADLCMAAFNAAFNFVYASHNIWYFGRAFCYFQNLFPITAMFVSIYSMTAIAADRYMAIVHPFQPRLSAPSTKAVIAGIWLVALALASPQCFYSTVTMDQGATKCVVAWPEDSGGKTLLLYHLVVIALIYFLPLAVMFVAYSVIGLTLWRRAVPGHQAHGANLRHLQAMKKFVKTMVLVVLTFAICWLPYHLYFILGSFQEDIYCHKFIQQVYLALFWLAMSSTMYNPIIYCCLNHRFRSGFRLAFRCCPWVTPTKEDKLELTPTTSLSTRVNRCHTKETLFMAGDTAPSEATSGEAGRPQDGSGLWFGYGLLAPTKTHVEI

[5] = molecular target: T3, Neuromedin-K receptor (Homo sapiens) (UniProt P29371); experiment: as §1; format: functional, cell-based
T3 sequence (whole entry): T1 sequence (P29371 whole entry)

Neuromedin-K receptor [6] = molecular target: T1, Neuromedin-K receptor; experiment: Agonist activity at human NK3R expressed in CHO cells assessed as potentiation of senktide-induced effect; format: cell-based

Chain of Substance-P receptor (Homo sapiens) (P25103 whole entry): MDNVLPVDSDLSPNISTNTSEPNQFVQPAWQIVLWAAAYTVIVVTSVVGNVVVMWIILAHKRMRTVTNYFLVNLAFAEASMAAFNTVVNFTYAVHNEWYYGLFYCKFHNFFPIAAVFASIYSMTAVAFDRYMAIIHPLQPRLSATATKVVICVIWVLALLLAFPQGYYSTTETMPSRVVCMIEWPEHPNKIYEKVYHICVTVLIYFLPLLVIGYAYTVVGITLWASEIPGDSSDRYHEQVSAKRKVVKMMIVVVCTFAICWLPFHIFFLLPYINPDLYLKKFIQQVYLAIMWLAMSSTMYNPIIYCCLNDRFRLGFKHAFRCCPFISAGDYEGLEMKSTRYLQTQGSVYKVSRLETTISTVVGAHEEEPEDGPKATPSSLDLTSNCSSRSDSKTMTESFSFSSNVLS

Row | SMILES | IC50 (Neuromedin-K receptor [1]) | EC50 (Neuromedin-K receptor [2]) | inhibition [3] | inhibition [4] | Activity [5] | EC50 (Neuromedin-K receptor [6])
1 | CSCC[C@H](NC(=O)[C@H](CC(C)C)NC(=O)CNC(=O)[C@H](Cc1ccccc1)N(C)C(=O)[C@H](Cc1ccccc1)NC(=O)[C@H](Cc1ccccc1)NC(=O)[C@@H](N)CC(=O)O)C(N)=O (H-DFF[NMeF]GLM-NH2) | 59 nM | 91 nM | 15% | 73% | – | –
2 | CSCC[C@H](NC(=O)[C@H](CC(C)C)NC(=O)CNC(=O)[C@H](Cc1ccccc1)N(C)C(=O)[C@H](Cc1ccccc1)NC(=O)[C@@H](N)Cc1ccccc1)C(N)=O (H-FF[NMeF]GLM-NH2) | 2900 nM | 240 nM | 49% | 84% | – | –
3 | CSCC[C@H](NC(=O)[C@H](CC(C)C)NC(=O)CNC(=O)[C@H](Cc1ccccc1)N(C)C(=O)[C@@H](N)Cc1ccccc1)C(N)=O (H-F[NMeF]GLM-NH2) | 2300 nM | 350 nM | 70% | 77% | – | –
4 | CSCC[C@H](NC(=O)[C@H](CC(C)C)NC(=O)CNC(=O)[C@H](Cc1ccccc1)N(C)C(=O)[C@@H](N)Cc1ccccc1)C(=O)O (H-F[NMeF]GLM-OH) | – | > 100000 nM | – | – | – | –
5 | CSCC[C@H](NC(=O)[C@H](CC(C)C)NC(=O)CNC(=O)[C@H](Cc1ccccc1)N(C)C(=O)[C@H](Cc1ccccc1)NC(=O)[C@H](Cc1ccccc1)NC(=O)[C@H](CC(=O)O)NC(=O)[C@@H](N)Cc1cnc[nH]1)C(N)=O (H-HDFF[NMeF]GLM-NH2) | 43 nM | 280 nM | 18% | 74% | – | –
6 | CSCC[C@H](NC(=O)[C@@H](N)CC(C)C)C(N)=O (H-Leu-Met-NH2) | – | – | – | – | inactive | –
7 | CSCC[C@H](NC(=O)[C@H](CC(C)C)NC(=O)CNC(=O)[C@H](Cc1ccccc1)N(C)C(=O)[C@H](Cc1ccccc1)NC(=O)[C@H](Cc1ccccc1)NC(=O)[C@H](CC(=O)O)NC(=O)[C@H](Cc1cnc[nH]1)NC(=O)[C@@H](N)CCSC)C(N)=O (H-MHDFF[NMeF]GLM-NH2) | 22 nM | 330 nM | 22% | 78% | – | –
8 | CN(C(=O)[C@@H](N)Cc1ccccc1)[C@@H](Cc1ccccc1)C(=O)NCC(=O)O (H-Phe-[NMeF]-Gly-OH) | – | > 100000 nM | – | – | – | –
9 | CN(C(=O)[C@H](Cc1ccccc1)NC(=O)[C@H](CC(=O)O)NC(=O)CCC(=O)O)[C@@H](Cc1ccccc1)C(=O)NCC(=O)O (Suc-DF[NMeF]G-OH) | – | – | – | – | inactive | –
10 | CSCC[C@H](NC(=O)[C@@H](CCCNC(=O)[C@H](Cc1ccccc1)N(C)C(=O)[C@H](Cc1ccccc1)NC(=O)[C@H](CC(=O)O)NC(=O)CCC(=O)O)CC(C)C)C(N)=O (Suc-DF[NMeF][X1]M-NH2) | 19000 nM | – | – | – | – | 920 nM
11 | CSCC[C@H](NC(=O)/C(=C/CCNC(=O)[C@H](Cc1ccccc1)N(C)C(=O)[C@H](Cc1ccccc1)NC(=O)[C@H](CC(=O)O)NC(=O)CCC(=O)O)CC(C)C)C(N)=O (Suc-DF[NMeF][X2]M-NH2) | 13000 nM | – | – | – | – | 1900 nM
12 | CSCC[C@H](NC(=O)[C@H](CC(C)C)NC(=N)CNC(=O)[C@H](Cc1ccccc1)N(C)C(=O)[C@H](Cc1ccccc1)NC(=O)[C@H](CC(=O)O)NC(=O)CCC(=O)O)C(N)=O (Suc-DF[NMeF][X3]M-NH2) | 360 nM | – | – | – | – | 100 nM
13 | CSCC[C@H](NC(=O)[C@H](CC(C)C)N/C(CNC(=O)[C@H](Cc1ccccc1)N(C)C(=O)[C@H](Cc1ccccc1)NC(=O)[C@H](CC(=O)O)NC(=O)CCC(=O)O)=N\O)C(N)=O (Suc-DF[NMeF][X4]M-NH2) | 1100 nM | – | – | – | – | 370 nM
